The record followed here is patent publication US8658646B2, “Pyrrolopyrazine kinase inhibitors” (Hoffmann-LaRoche Inc., priority 2011, dated 2014).

The test deals with T1, JAK3: Recombinant human kinase domain (Homo sapiens, UniProt P52333).
T1 construct: JAK3: Recombinant human kinase domain from Millipore (Cat #14-629) or prepared; purchased Millipore 14-629
T1 sequence (P52333 822-1111 limits assumed): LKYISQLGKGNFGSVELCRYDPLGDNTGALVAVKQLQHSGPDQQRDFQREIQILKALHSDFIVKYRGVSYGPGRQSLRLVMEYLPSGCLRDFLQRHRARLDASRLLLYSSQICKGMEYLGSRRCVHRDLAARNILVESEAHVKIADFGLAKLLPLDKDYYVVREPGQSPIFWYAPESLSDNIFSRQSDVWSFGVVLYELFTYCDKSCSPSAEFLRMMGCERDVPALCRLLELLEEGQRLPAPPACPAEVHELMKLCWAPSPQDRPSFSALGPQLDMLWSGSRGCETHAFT
The test is described as follows: Determination of IC50 of Janus Kinase (JAK) inhibition, radioactive end-point 33P-ATP assay, JAK3. The note with it: ATP 1.5 uM, peptide 50 uM, 20 minutes, read-out: JAK3-INHIB-DR/v1~NO ADDITIVE~Enzyme_Conc = 100. It counts as biochemical.
Turning to `C[C@@H](NC(=O)c1c[nH]c2ncc(-c3nn(CC(O)CO)c4cc(Cl)ccc34)nc12)C(=O)N1CC(C#N)C1` (stereo partly drawn) [Example I-94, 2-[6-Chloro-1-(2,3-dihydroxy-propyl)-1H-indazol-3-yl]-5H-pyrrolo[2,3-b]pyrazine-7-carboxylic acid [(R)-2-(3-cyano-azetidin-1-yl)-1-methyl-2-oxo-ethyl)-amide], the IC50 is 12.6 nM.
As to `CC(O)Cn1nc(-c2cnc3[nH]cc(C(=O)N[C@H](C)C(=O)N4CC(C#N)C4)c3n2)c2ccc(Cl)cc21` (stereo partly drawn) [Example I-95, 2-[6-Chloro-1-(2-hydroxy-propyl)-1H-indazol-3-yl]-5H-pyrrolo[2,3-b]pyrazine-7-carboxylic acid [(R)-2-(3-cyano-azetidin-1-yl)-1-methyl-2-oxo-ethyl]-amide], the IC50 was 4.83 nM.
Regarding `C[C@@H](NC(=O)c1c[nH]c2ncc(-c3nn(CCCO)c4cc(Cl)ccc34)nc12)C(=O)N1CC(C#N)C1` [Example I-96, 2-[6-Chloro-1-(3-hydroxy-propyl)-1H-indazol-3-yl]-5H-pyrrolo[2,3-b]pyrazine-7-carboxylic acid [(R)-2-(3-cyano-azetidin-1-yl)-1-methyl-2-oxo-ethyl]-amide], the IC50 was 5.39 nM.
On to `C[C@@H](NC(=O)c1c[nH]c2ncc(-c3nn(C)c4cc(Cl)cc(Cl)c34)nc12)C(=O)N1CC(C#N)C1` [Example I-97, 2-(4,6-Dichloro-1-methyl-1H-indazol-3-yl)-5H-pyrrolo[2,3-b]pyrazine-7-carboxylic acid [(R)-2-(3-cyano-azetidin-1-yl)-1-methyl-2-oxo-ethyl]-amide], for which the IC50 came to 57.1 nM.
Turning to `C[C@@H](NC(=O)c1c[nH]c2ncc(-c3nn(C)c4cccnc34)nc12)C(=O)N1CC(C#N)C1` [Example I-98, 2-(1-Methyl-1H-pyrazolo[4,3-b]pyridin-3-yl)-5H-pyrrolo[2,3-b]pyrazine-7-carboxylic acid [(R)-2-(3-cyano-azetidin-1-yl)-1-methyl-2-oxo-ethyl]-amide], the IC50 is 6.78 nM.
With `C[C@@H](NC(=O)c1c[nH]c2ncc(-c3nn(C)c4ccsc34)nc12)C(=O)N1CC(C#N)C1` [Example I-99, 2-(1-Methyl-1H-thieno[3,2-c]pyrazol-3-yl)-5H-pyrrolo[2,3-b]pyrazine-7-carboxylic acid [(R)-2-(3-cyano-azetidin-1-yl)-1-methyl-2-oxo-ethyl]-amide], the IC50 was 0.85 nM.
As to `C[C@@H](NC(=O)c1c[nH]c2ncc(-c3nn(C)c4cc(F)ccc34)nc12)C1(C#N)CCCC1` [Example I-100, 2-(6-Fluoro-1-methyl-1H-indazol-3-yl)-5H-pyrrolo[2,3-b]pyrazine-7-carboxylic acid [(R)-1-(1-cyano-cyclopentyl)-ethyl]-amide], the IC50 amounted to 156 nM.
As for `C[C@H](CS(C)(=O)=O)NC(=O)c1c[nH]c2ncc(-c3nn(C)c4cc(Cl)ccc34)nc12` [Example I-105, 2-(6-Chloro-1-methyl-1H-indazol-3-yl)-5H-pyrrolo[2,3-b]pyrazine-7-carboxylic acid ((R)-2-methanesulfonyl-1-methyl-ethyl)-amide], the IC50 came out at 54.4 nM.
As for `Cn1nc(-c2cnc3[nH]cc(C(=O)NC4CCCC4)c3n2)c2ccc(Cl)cc21` [Example I-106, 2-(6-Chloro-1-methyl-1H-indazol-3-yl)-5H-pyrrolo[2,3-b]pyrazine-7-carboxylic acid cyclopentylamide], the figure is 5.26 nM; as for `CC(C)NC(=O)c1c[nH]c2ncc(-c3nn(C)c4cc(Cl)ccc34)nc12` [Example I-108, 2-(6-Chloro-1-methyl-1H-indazol-3-yl)-5H-pyrrolo[2,3-b]pyrazine-7-carboxylic acid isopropylamide], 7.05 nM.
As for `CCNC(=O)c1c[nH]c2ncc(-c3nn(C)c4cc(Cl)ccc34)nc12` [Example I-109, 2-(6-Chloro-1-methyl-1H-indazol-3-yl)-5H-pyrrolo[2,3-b]pyrazine-7-carboxylic acid ethylamide], the IC50 amounted to 44.3 nM.
On to `Cn1nc(-c2cnc3[nH]cc(C(=O)NCC4CC4)c3n2)c2ccc(F)cc21` [Example I-117, 2-(6-Fluoro-1-methyl-1H-indazol-3-yl)-5H-pyrrolo[2,3-b]pyrazine-7-carboxylic acid cyclopropylmethyl-amide], for which the IC50 came to 8.48 nM.
For the molecule `C[C@@H](NC(=O)c1c[nH]c2ncc(-c3nn(C)c4cc(Cl)ccc34)nc12)C(=O)N1CC[C@H](F)C1` [Example I-118, 2-(6-Chloro-1-methyl-1H-indazol-3-yl)-5H-pyrrolo[2,3-b]pyrazine-7-carboxylic acid [(R)-2-((S)-3-fluoro-pyrrolidin-1-yl)-1-methyl-2-oxo-ethyl]-amide], the IC50 is 2.01 nM.
Consider `C[C@@H](NC(=O)c1c[nH]c2ncc(-c3nn(C)c4cc(Cl)ccc34)nc12)C(=O)N1CC[C@@H](F)C1` [Example I-119, 2-(6-Chloro-1-methyl-1H-indazol-3-yl)-5H-pyrrolo[2,3-b]pyrazine-7-carboxylic acid [(R)-2-((R)-3-fluoro-pyrrolidin-1-yl)-methyl-2-oxo-ethyl]-amide], for which the IC50 is 3.64 nM.
As for `C[C@@H](NC(=O)c1c[nH]c2ncc(-c3nn(C)c4cc(Cl)ccc34)nc12)C(=O)N1CC(F)C1` [Example I-120, 2-(6-Chloro-1-methyl-1H-indazol-3-yl)-5H-pyrrolo[2,3-b]pyrazine-7-carboxylic acid [(R)-2-(3-fluoro-azetidin-1-yl)-1-methyl-2-oxo-ethyl)-amide], the figure is 2.73 nM; as for `C[C@H](CN1CC(C#N)C1)NC(=O)c1c[nH]c2ncc(-c3nn(C)c4cc(Cl)ccc34)nc12` [Example I-126, 2-(6-Chloro-1-methyl-1H-indazol-3-yl)-5H-pyrrolo[2,3-b]pyrazine-7-carboxylic acid [(R)-2-(3-cyano-azetidin-1-yl)-1-methyl-ethyl]-amide], 18.3 nM; as for `CC(C)NC(=O)c1c[nH]c2ncc(-c3nn(CCCN(C)C)c4cc(Cl)cc(F)c34)nc12` [Example I-130, 2-[6-Chloro-1-(3-dimethylamino-propyl)-4-fluoro-1H-indazol-3-yl]-5H-pyrrolo[2,3-b]pyrazine-7-carboxylic acid isopropylamide], 14.3 nM.
For `C[C@H](Cn1cccn1)NC(=O)c1c[nH]c2ncc(-c3nn(C)c4cc(F)ccc34)nc12` [Example I-133, 2-(6-Fluoro-1-methyl-1H-indazol-3-yl)-5H-pyrrolo[2,3-b]pyrazine-7-carboxylic acid ((R)-1-methyl-2-pyrazol-1-yl-ethyl)-amide], the IC50 stood at 56.7 nM.
Turning to `CO[C@@H](C)CNC(=O)c1c[nH]c2ncc(-c3nn(C)c4cc(F)ccc34)nc12` [Example I-135, 2-(6-Fluoro-1-methyl-1H-indazol-3-yl)-5H-pyrrolo[2,3-b]pyrazine-7-carboxylic acid ((S)-2-methoxy-propyl)-amide], the IC50 worked out at 6.9 nM.
Turning to `C[C@@H](C#N)CNC(=O)c1c[nH]c2ncc(-c3nn(C)c4cc(F)ccc34)nc12` [Example I-136, 2-(6-Fluoro-1-methyl-1H-indazol-3-yl)-5H-pyrrolo[2,3-b]pyrazine-7-carboxylic acid ((R)-2-cyano-2-methyl-ethyl)-amide], the IC50 amounted to 176 nM.
As for `C[C@H](CNC(=O)c1c[nH]c2ncc(-c3nn(C)c4cc(F)ccc34)nc12)C(N)=O` [Example I-137, 2-(6-Fluoro-1-methyl-1H-indazol-3-yl)-5H-pyrrolo[2,3-b]pyrazine-7-carboxylic acid ((R)-2-carbamoyl-propyl)-amide], the IC50 stood at 132 nM.
